pIC50: −log10 of the molar value.

This assay addresses T1, Human complement C1s enzyme (Homo sapiens, UniProt P09871).
T1 construct: purified from human serum, Complement Technology, Inc; purchased Complement Technology, Inc; host or cells: human serum (plasma-derived natural protein)
T1 sequence (P09871 438-688 limits assumed): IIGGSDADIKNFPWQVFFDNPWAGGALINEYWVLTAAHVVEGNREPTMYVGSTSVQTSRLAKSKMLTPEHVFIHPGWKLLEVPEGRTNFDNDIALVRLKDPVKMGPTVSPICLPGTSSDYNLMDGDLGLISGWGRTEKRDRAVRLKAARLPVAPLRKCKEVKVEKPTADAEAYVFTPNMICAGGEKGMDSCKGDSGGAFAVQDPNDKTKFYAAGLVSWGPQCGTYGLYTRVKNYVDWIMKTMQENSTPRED
T1 sequence (P09871 16-437 partner limits assumed): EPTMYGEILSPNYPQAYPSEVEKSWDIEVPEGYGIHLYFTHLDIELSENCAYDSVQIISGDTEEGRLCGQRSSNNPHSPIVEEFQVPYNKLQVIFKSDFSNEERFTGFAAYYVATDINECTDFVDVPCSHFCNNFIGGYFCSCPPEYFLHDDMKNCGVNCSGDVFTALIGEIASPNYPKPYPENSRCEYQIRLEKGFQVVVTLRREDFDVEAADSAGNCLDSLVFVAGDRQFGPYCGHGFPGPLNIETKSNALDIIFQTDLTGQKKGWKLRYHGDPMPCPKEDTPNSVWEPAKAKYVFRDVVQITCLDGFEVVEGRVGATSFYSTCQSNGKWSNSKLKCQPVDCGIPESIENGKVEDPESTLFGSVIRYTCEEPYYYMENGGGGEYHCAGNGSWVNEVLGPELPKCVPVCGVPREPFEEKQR
Description: Human C1s Enzyme Assay. The conditions noted are these: Table 2; C1s purified from human serum, 1.16 nM; substrate Z-L-Lys-SBzl; read-out: C1s Protease Activity. Format: biochemical. The method in brief:
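Serum-purified human C1s (1.16 nM) preincubated 5 min at RT with compound in 50 mM Tris, 1 M NaCl, pH 7.5. Z-L-Lys-SBzl and DTNB (100 μM each) then added; A405 followed every 30 s for 30 min. IC50 from nonlinear regression of reaction rates versus compound concentration.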
With `CCCCCc1ccc(C(=O)NCC(=O)N2CCC[C@H]2C(=O)NCc2cc(C(=N)N)cs2)cc1` [Compound 74, (S)-N-((4-carbamimidoylthiophen-2-yl)methyl)-1-((4-pentylbenzoyl)glycyl)pyrrolidine-2-carboxamide], the pIC50 is above 7.00.

Regarding `CCCCCCc1ccc(C(=O)NCC(=O)N2CCC[C@H]2C(=O)NCc2cc(C(=N)N)cs2)cc1` [Compound 75, (S)-N-((4-carbamimidoylthiophen-2-yl)methyl)-1-((4-hexylbenzoyl)glycyl)pyrrolidine-2-carboxamide], the pIC50 was above 7.00.

On to `CCOc1ccc(C(=O)NCC(=O)N2CCC[C@H]2C(=O)NCc2cc(C(=N)N)cs2)cc1` [Compound 76, (S)-N-((4-carbamimidoylthiophen-2-yl)methyl)-1-((4-ethoxybenzoyl)glycyl)pyrrolidine-2-carboxamide], for which the pIC50 was 6.00 to 7.00.

On to `CCCOc1ccc(C(=O)NCC(=O)N2CCC[C@H]2C(=O)NCc2cc(C(=N)N)cs2)cc1` [Compound 77, (S)-N-((4-carbamimidoylthiophen-2-yl)methyl)-1-((4-propoxybenzoyl)glycyl)pyrrolidine-2-carboxamide], for which the pIC50 was above 7.00.

Regarding `CCCCOc1ccc(C(=O)NCC(=O)N2CCC[C@H]2C(=O)NCc2cc(C(=N)N)cs2)cc1` [Compound 78, (S)-1-((4-butoxybenzoyl)glycyl)-N-((4-carbamimidoylthiophen-2-yl)methyl)pyrrolidine-2-carboxamide], the pIC50 is above 7.00.

As for `CCCCCOc1ccc(C(=O)NCC(=O)N2CCC[C@H]2C(=O)NCc2cc(C(=N)N)cs2)cc1` [Compound 79, (S)-N-((4-carbamimidoylthiophen-2-yl)methyl)-1-((4-(pentyloxy)benzoyl)glycyl)pyrrolidine-2-carboxamide], the pIC50 is above 7.00.

With `N=C(N)c1csc(CNC(=O)[C@@H]2CCCN2C(=O)CNC(=O)CCCCc2ccccc2)c1` [Compound 80, (S)-N-((4-carbamimidoylthiophen-2-yl)methyl)-1-((5-phenylpentanoyl)glycyl)pyrrolidine-2-carboxamide], the pIC50 is above 7.00.

With `N=C(N)c1csc(CNC(=O)[C@@H]2CCCN2C(=O)CNC(=O)CCCCCc2ccccc2)c1` [Compound 81, (S)-N-((4-carbamimidoylthiophen-2-yl)methyl)-1-((6-phenylhexanoyl)glycyl)pyrrolidine-2-carboxamide], the pIC50 is above 7.00.

As to `CCCCCC(=O)NCC(=O)N1CCC[C@H]1C(=O)NCc1cc(C(=N)N)cs1` [Compound 82, (S)-N-((4-carbamimidoylthiophen-2-yl)methyl)-1-(hexanoylglycyl)pyrrolidine-2-carboxamide], the pIC50 is 6.00 to 7.00.

`CCCCCCC(=O)NCC(=O)N1CCC[C@H]1C(=O)NCc1cc(C(=N)N)cs1` [Compound 83, (S)-N-((4-carbamimidoylthiophen-2-yl)methyl)-1-(heptanoylglycyl)pyrrolidine-2-carboxamide]: the pIC50 was 6.00 to 7.00.

As to `CCCCCCCC(=O)NCC(=O)N1CCC[C@H]1C(=O)NCc1cc(C(=N)N)cs1` [Compound 84, (S)-N-((4-carbamimidoylthiophen-2-yl)methyl)-1-(octanoylglycyl)pyrrolidine-2-carboxamide], the pIC50 is above 7.00.

With `CCCCCCCCC(=O)NCC(=O)N1CCC[C@H]1C(=O)NCc1cc(C(=N)N)cs1` [Compound 85, (S)-N-((4-carbamimidoylthiophen-2-yl)methyl)-1-(nonanoylglycyl)pyrrolidine-2-carboxamide], the pIC50 was above 7.00.

As for `CCCCCCCCCC(=O)NCC(=O)N1CCC[C@H]1C(=O)NCc1cc(C(=N)N)cs1` [Compound 86, (S)-N-((4-carbamimidoylthiophen-2-yl)methyl)-1-(decanoylglycyl)pyrrolidine-2-carboxamide], the pIC50 is above 7.00.

(Values after patent US12479856B2, “Pharmaceutical compounds for the treatment of complement mediated disorders” (Achillion Pharmaceuticals, Inc., priority 2019, dated 2025).)
